Values of other authors in patent US7029703B2, “Composition for promoting healthy bone structure” (Metagenics, Inc., priority 1999, dated 2006).

Columns and labels:
[1] = postmenopausal osteoporosis
[2] = 600 mg ipriflavone/day along with 1 gram calcium
[3] = in animals and in humans
[4] = clinical trials; consumption data of up to 2 years
osteoblast-like cells = conditions: in vitro

**Q.** For `O=C([O-])[O-].[Ca+2]` [calcium carbonate], which “rate of bone loss” value [1] is on record?
**A.** reduced the rate of bone loss by about half

**Q.** Which “Urinary hydroxyproline/creatinine (HOP/Cr)” value [2] does the source give for `CC(C)Oc1ccc2c(=O)c(-c3ccccc3)coc2c1` [ipriflavone, 7-isopropoxyisoflavone] here?
**A.** reduced

**Q.** What about the “serum osteocalcin (BGP)” value [2] of the same compound?
**A.** reduced

**Q.** What about the “increase in BMD at the distal radius (DPA)” value ([2]; 28 osteoporotic elderly women, P<0.05) of the same compound?
**A.** 6%

**Q.** What about the Bone pain (during the 1200/600 mg sequence of ipriflavone) of the same compound?
**A.** significantly decreased

**Q.** What about the “Serum alkaline phosphatase (ALP) decrease” value (following the 1200/600 mg ipriflavone sequence, P<0.01) of the same compound?
**A.** 33%

**Q.** What about the “hydroxy proline/creatinine (HOP/Cr) decrease” value (following the 1200/600 mg ipriflavone sequence, P<0.05) of the same compound?
**A.** 24.1%

**Q.** And the estrogenic activity [3]?
**A.** devoid of any estrogenic activity

**Q.** What about the “frequency of adverse reactions” value [4] of the same compound?
**A.** equal to that observed during administration of a placebo

**Q.** What about the alkaline phosphatase activity (osteoblast-like cells) of the same compound?
**A.** increases

**Q.** What about the collagen synthesis (osteoblast-like cells) of the same compound?
**A.** increases
